In patent publication US10961163B2, “Compositions and methods useful for enhancing the microbial conversion of nitrate into ammonium” (The Regents of the University of California, priority 2016, dated 2021):
Read-outs that look alike come from different tables or passages of the source.

Test system: microbial enrichment cultures
Experiment: Inhibitory potency (IC50) of inorganic compounds against growth and ammonium production, microbial enrichment with yeast extract
Assay type: cell-based
[1] = microbial enrichment with complex carbon source (yeast extract), serial dilutions of inorganic compound, higher ratio favors ammonium production

Compound	NH4^+ IC50/growth IC50 ratio	NH4^+ IC50/growth IC50 ratio [1]
[O-][Cl+3]([O-])([O-])O [Sodium perchlorate monohydrate]	5.2779	
[Na+].[O-][I+3]([O-])([O-])[O-] [Sodium periodate]	7.8824	
O.O=P([O-])(O)O.[Na+] [Sodium phosphate monobasic monohydrate]	0.3418	
O=[PH](O)O [Sodium phosphite dibasic pentahydrate]	1.3336	
O=P([O-])(O)OP(=O)([O-])O.[Na+].[Na+] [Sodium pyrophosphate dibasic]		0.6988
O=[Se](=O)(O)O [Sodium selenate]	10.0581	
O.O.O.O.O.O=[Se]([O-])[O-].[Na+].[Na+] [Sodium selenite pentahydrate]	0.2998	
O=S(=O)([O-])[O-].[Na+].[Na+] [Sodium sulfate]	1.0000	
O.O.O.O.O.O=S([O-])([O-])=S.[Na+].[Na+] [Sodium thiosulfate pentahydrate]	0.5741	
[Cl-].[Cl-].[Sr+2] [Strontium chloride]	3.3568	
CC(=O)[O-].[Tl+] [Thallium(I) acetate]	0.3751	
COc1cc(CO)ccc1O [Vanillyl Alcohol]		2.0632
[Cl-].[Cl-].[Zn+2] [Zinc chloride]	0.1037	
CS(C)(=O)=O [dimethyl sulfone]		2.0187
O=[Te](=O)([O-])[O-].[K+].[K+] [potassium tellurate]	1.7673	
[Cl-].[Rb+] [rubidium chloride]	1.4483	

Compound	NH4^+ IC50/growth IC50 ratio	NH4^+ IC50/growth IC50 ratio [1]
O=S(=O)([O-])[O-].[Ag+].[Ag+] [silver sulfate]	1.9192	
[Br-].[Na+] [sodium bromide]	0.5766	
[F-].[Na+] [sodium fluoride]	1.6628	
[I-].[Na+] [sodium iodide]	0.2617	
O=S([O-])[O-].[Na+].[Na+] [sodium sulfite]	2.4699	
Aluminum chloride hydrate		0.0961
Barium chloride dihydrate	0.1756	
Calcium chloride dihydrate	0.1455	
Manganese (II) chloride tetrahydrate	0.0037	
Nickel (II) chloride hexahydrate	53.6273	
Sodium Chlorite	1.2683	
Sodium deoxycholate monohydrate	0.0027	
Sodium metavanadate	13.0898	
Sodium thiophosphate tribasic hydrate	0.8963	
Sodium tungstate dihydrate	1.8289	
copper (II) chloride dihydrate		0.1069
